Laboratory results reported in patent US10800741B2 (ANCUREALL PHARMACEUTICAL (SHANGHAI) CO., LTD., priority 2017, dated 2020).
Where two headings read alike, the source gives them in different places.

Key:
Assay in all cases: KINOMEscan in vitro binding to 468 labeled protein kinases
protein kinases [1] = target: T1, protein kinases (Homo sapiens, UniProt Q16288); conditions: TRKC (NTRK3), read-out: Test compound/solvent control (%)
T1 construct: purchased Discovery X company (USA), KINOMEscan screening platform
T1 sequence (Q16288 32-839): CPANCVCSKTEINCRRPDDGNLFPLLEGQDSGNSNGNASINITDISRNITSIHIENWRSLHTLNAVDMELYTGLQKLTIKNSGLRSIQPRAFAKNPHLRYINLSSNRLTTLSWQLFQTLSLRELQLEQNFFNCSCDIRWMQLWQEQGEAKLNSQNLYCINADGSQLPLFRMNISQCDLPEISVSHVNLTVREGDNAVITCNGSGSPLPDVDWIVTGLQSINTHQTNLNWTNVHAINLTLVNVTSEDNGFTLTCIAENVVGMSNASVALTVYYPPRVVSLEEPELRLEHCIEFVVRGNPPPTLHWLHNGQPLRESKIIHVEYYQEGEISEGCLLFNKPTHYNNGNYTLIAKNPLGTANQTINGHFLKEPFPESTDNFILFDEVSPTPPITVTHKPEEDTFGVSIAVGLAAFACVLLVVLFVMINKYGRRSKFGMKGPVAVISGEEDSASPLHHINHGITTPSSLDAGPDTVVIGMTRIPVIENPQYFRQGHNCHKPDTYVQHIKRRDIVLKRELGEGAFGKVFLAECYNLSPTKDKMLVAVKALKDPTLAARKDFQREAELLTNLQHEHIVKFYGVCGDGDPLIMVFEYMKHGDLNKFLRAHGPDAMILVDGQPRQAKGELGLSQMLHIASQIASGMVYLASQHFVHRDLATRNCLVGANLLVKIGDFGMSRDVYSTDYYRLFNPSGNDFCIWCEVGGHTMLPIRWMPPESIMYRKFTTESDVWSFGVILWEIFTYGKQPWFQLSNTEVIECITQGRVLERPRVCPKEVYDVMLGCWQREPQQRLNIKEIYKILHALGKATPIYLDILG
Outline: (§1)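 Competition binding across 468 labelled kinases on the KINOMEscan platform, compound tested at 1000 nM, 10 nM and 1 nM, duplicate samples. Result given as percentage of DMSO solvent control; lower percentage means stronger binding.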

protein kinases [2] = target: T2, protein kinases (Homo sapiens, UniProt P36888, R834Q); conditions: FLT3(R834Q), read-out: Test compound/solvent control (%)
T2 construct: purchased Discovery X company (USA), KINOMEscan screening platform
T2 sequence (P36888 27-993 R834Q): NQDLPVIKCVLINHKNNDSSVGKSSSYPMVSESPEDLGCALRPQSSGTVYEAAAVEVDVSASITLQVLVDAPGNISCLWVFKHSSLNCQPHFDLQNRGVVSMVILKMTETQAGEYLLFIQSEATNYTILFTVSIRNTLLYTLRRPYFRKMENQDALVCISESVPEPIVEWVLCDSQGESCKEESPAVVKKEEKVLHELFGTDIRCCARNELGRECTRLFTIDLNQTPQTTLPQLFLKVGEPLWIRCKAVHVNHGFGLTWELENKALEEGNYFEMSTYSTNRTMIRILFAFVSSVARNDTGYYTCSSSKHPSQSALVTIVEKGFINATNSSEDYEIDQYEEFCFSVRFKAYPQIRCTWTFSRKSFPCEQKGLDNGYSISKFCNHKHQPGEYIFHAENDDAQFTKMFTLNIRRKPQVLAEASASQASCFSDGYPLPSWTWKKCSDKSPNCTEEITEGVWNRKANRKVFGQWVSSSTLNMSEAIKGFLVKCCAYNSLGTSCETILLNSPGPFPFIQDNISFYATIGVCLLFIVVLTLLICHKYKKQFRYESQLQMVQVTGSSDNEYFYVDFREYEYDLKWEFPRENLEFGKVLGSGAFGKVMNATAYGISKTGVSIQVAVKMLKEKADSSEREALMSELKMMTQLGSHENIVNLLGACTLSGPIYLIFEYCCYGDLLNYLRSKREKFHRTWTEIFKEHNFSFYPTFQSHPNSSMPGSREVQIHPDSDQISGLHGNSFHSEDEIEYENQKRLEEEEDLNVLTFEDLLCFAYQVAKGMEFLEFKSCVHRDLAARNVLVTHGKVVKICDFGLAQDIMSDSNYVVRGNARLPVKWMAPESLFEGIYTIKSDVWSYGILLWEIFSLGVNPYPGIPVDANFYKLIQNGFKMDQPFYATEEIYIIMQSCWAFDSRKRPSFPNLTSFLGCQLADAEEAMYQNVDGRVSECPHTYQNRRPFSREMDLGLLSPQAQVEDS
Outline: as §1

protein kinases [3] = target: T3, protein kinases (Homo sapiens, UniProt P11362); conditions: FGFR1, read-out: Test compound/solvent control (%)
T3 construct: purchased Discovery X company (USA), KINOMEscan screening platform
T3 sequence (P11362 22-822): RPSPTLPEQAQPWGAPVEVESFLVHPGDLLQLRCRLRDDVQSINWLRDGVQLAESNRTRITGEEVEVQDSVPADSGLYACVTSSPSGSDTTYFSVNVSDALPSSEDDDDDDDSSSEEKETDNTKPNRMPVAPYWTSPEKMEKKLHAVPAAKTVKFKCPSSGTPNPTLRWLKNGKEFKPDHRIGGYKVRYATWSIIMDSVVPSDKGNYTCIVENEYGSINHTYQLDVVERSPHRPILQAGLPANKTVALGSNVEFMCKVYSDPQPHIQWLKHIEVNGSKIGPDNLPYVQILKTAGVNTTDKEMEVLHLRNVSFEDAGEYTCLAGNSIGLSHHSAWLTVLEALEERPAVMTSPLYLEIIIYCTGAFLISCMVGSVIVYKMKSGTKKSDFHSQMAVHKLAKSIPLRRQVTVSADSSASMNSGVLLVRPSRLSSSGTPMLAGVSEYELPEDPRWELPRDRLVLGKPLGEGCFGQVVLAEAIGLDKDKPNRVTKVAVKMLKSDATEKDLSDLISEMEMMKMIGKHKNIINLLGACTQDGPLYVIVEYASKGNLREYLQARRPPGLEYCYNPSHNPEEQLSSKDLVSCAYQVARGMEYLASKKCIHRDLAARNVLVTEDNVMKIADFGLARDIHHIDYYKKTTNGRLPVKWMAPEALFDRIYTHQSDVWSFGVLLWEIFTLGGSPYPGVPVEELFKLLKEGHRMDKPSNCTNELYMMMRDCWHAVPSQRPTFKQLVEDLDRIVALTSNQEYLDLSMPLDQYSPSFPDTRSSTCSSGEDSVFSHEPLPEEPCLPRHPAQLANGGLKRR
Outline: as §1

protein kinases [4] = target: T4, protein kinases (Homo sapiens, UniProt P00519, H396P); conditions: read-out: Test compound/solvent control (%); for remaining binding at 0.001 µM: 1 nM; for remaining binding at 0.01 µM: 10 nM; for remaining binding at 1 µM: 1000 nM
T4 construct: purchased Discovery X company (USA), KINOMEscan screening platform
Outline: as §1

protein kinases [5] = target: T5, protein kinases (Homo sapiens, UniProt P10721); conditions: KIT, read-out: Test compound/solvent control (%)
T5 construct: purchased Discovery X company (USA), KINOMEscan screening platform
Outline: as §1

protein kinases [6] = target: T6, protein kinases (Homo sapiens, UniProt Q9UKE5); conditions: TNIK, read-out: Test compound/solvent control (%)
T6 construct: purchased Discovery X company (USA), KINOMEscan screening platform
Outline: as §1

protein kinases [7] = target: T7, protein kinases (Homo sapiens, UniProt Q16620); conditions: TRKB (NTRK2), read-out: Test compound/solvent control (%)
T7 construct: purchased Discovery X company (USA), KINOMEscan screening platform
T7 sequence (Q16620 32-822): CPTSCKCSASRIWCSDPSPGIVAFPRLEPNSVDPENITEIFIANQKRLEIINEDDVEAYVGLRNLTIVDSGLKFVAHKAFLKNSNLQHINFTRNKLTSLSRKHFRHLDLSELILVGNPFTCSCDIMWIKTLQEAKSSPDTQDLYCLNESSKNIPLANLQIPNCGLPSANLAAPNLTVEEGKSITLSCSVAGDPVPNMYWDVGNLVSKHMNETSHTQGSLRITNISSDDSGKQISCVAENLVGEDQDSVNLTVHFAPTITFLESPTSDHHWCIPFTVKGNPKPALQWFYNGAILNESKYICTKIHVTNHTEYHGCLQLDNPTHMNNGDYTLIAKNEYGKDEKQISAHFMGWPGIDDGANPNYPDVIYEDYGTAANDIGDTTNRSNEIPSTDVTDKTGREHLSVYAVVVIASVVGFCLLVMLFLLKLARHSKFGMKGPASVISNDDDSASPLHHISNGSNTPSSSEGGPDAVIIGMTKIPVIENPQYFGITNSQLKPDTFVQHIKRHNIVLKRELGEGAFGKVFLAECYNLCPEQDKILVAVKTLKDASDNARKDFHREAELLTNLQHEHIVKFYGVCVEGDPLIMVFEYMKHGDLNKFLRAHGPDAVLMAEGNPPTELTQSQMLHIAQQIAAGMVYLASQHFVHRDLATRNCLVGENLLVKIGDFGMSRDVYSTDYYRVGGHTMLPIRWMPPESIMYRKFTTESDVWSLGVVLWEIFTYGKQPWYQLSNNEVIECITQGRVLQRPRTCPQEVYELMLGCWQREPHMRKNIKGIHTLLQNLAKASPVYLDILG
Outline: as §1

protein kinases [8] = target: T8, protein kinases (Homo sapiens, UniProt P06241); conditions: FYN, read-out: Test compound/solvent control (%)
T8 construct: purchased Discovery X company (USA), KINOMEscan screening platform
T8 sequence (P06241 whole entry): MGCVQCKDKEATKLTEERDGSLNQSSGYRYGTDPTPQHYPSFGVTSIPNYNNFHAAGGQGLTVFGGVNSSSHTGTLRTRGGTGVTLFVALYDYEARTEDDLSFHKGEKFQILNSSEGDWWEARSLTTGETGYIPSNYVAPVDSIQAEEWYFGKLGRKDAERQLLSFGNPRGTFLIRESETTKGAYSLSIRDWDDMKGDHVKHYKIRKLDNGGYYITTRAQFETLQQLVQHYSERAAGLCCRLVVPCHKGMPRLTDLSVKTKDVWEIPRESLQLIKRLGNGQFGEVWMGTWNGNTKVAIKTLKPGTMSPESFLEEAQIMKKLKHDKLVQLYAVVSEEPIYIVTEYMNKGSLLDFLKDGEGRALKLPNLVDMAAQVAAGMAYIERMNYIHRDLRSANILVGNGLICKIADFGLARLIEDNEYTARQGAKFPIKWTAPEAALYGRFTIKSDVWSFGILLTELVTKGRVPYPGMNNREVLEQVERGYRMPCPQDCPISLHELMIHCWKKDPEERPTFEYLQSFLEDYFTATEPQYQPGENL
Outline: as §1

protein kinases [9] = target: T9, protein kinases (Homo sapiens, UniProt P22455); conditions: FGFR4, read-out: Test compound/solvent control (%)
T9 construct: purchased Discovery X company (USA), KINOMEscan screening platform
T9 sequence (P22455 22-802): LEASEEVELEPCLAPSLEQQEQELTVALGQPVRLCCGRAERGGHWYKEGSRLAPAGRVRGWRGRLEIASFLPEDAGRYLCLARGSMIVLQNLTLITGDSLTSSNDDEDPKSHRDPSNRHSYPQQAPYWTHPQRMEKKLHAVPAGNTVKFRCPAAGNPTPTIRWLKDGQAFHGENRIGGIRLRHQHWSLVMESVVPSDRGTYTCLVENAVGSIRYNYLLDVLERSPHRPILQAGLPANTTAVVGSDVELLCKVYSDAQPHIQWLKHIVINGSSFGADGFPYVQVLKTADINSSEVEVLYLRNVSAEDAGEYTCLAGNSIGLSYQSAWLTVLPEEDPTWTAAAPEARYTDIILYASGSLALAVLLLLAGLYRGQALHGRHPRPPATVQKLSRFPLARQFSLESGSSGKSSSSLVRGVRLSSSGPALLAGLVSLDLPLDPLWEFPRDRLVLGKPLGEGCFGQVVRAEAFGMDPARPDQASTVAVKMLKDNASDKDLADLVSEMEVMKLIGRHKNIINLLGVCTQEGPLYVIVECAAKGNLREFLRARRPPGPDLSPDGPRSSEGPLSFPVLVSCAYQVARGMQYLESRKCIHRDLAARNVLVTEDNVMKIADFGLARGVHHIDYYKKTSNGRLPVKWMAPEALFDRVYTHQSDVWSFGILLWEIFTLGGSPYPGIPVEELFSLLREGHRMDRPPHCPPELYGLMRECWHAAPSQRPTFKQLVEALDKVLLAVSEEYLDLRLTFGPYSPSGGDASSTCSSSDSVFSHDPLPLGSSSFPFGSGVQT
Outline: as §1

protein kinases [10] = target: T10, protein kinases (Homo sapiens, UniProt P22607); conditions: FGFR3, read-out: Test compound/solvent control (%)
T10 construct: purchased Discovery X company (USA), KINOMEscan screening platform
Outline: as §1

protein kinases [11] = target: T11, protein kinases (Homo sapiens, UniProt P00519); conditions: read-out: Test compound/solvent control (%); for remaining binding at 0.001 µM: 1 nM; for remaining binding at 0.01 µM: 10 nM; for remaining binding at 1 µM: 1000 nM
T11 construct: purchased Discovery X company (USA), KINOMEscan screening platform
Outline: as §1

protein kinases [12] = target: T12, protein kinases (Homo sapiens, UniProt P22607, G697C); conditions: FGFR3(G697C), read-out: Test compound/solvent control (%)
T12 construct: purchased Discovery X company (USA), KINOMEscan screening platform
T12 sequence (P22607 23-806 G697C): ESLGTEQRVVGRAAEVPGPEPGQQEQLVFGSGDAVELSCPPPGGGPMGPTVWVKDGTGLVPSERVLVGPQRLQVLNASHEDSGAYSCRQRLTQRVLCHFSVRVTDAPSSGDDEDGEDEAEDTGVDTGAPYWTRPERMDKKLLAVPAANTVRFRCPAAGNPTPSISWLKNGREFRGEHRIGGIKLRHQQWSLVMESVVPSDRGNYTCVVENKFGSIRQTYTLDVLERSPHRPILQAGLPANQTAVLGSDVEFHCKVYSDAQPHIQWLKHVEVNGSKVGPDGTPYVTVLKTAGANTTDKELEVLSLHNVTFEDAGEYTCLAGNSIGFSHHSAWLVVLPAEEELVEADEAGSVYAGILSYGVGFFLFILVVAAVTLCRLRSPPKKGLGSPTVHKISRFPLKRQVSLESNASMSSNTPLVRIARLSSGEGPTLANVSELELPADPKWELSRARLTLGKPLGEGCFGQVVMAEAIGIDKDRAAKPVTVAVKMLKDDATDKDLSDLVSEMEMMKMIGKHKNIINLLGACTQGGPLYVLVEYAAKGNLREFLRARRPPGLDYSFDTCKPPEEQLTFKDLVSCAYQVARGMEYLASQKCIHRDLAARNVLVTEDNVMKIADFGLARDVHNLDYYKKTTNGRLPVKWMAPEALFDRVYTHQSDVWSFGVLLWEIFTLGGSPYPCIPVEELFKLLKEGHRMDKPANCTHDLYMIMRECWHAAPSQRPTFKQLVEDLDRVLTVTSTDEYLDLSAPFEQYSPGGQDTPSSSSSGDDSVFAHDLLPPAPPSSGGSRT
Outline: as §1

protein kinases [13] = target: T13, protein kinases (Homo sapiens, UniProt P12931); conditions: SRC, read-out: Test compound/solvent control (%)
T13 construct: purchased Discovery X company (USA), KINOMEscan screening platform
T13 sequence (P12931 whole entry): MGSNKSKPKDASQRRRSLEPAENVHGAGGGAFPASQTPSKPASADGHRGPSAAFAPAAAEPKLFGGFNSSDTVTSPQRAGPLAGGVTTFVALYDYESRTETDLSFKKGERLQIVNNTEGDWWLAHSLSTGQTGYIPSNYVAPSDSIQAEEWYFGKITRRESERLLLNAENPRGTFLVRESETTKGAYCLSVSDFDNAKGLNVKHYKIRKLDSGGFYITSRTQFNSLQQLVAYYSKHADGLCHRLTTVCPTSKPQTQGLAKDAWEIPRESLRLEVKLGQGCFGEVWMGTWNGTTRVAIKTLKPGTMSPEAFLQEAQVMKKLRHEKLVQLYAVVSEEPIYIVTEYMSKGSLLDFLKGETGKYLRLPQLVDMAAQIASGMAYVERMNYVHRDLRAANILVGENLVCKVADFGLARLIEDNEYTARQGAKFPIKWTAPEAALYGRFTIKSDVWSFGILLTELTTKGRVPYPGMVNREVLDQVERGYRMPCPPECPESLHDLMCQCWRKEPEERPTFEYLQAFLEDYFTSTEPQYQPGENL
Outline: as §1

protein kinases [14] = target: T14, protein kinases (Homo sapiens, UniProt P00533, DEL752-759); conditions: EGFR(S752-1759del)
T14 construct: purchased Discovery X company (USA), KINOMEscan screening platform
Outline: as §1

COCCOc1cc2nccc(Oc3ccc(NC(=O)Nc4cc(C(C)(C)C)n[nH]4)c(Cl)c3)c2cc1NC(C)=O [Compound 66, N-[4-{4-[3-(5-tert-butyl-2H-pyrazol-3-yl)-ureido]-3-chloro-phenoxy}-7-(2-methoxy-ethoxy)-quinolin-6-yl]-acetamide]
remaining binding at 0.001 µM (protein kinases [1]; 1 nM): 84%
remaining binding at 0.01 µM (protein kinases [1]; 10 nM): 28%
remaining binding at 1 µM (protein kinases [1]; 1000 nM): 0.2%
remaining binding at 0.001 µM (protein kinases [2]; 1 nM): 83%
remaining binding at 0.01 µM (protein kinases [2]; 10 nM): 45%
remaining binding at 1 µM (protein kinases [2]; 1000 nM): 0.6%
remaining binding at 0.001 µM (protein kinases [3]; 1 nM): 56%
remaining binding at 0.01 µM (protein kinases [3]; 10 nM): 4.5%
remaining binding at 1 µM (protein kinases [3]; 1000 nM): 0.3%
remaining binding at 0.001 µM (protein kinases [4]; ABL1(H396P)-phosphorylated): 55%
remaining binding at 0.01 µM (protein kinases [4]; ABL1(H396P)-phosphorylated): 9.7%
remaining binding at 1 µM (protein kinases [4]; ABL1(H396P)-phosphorylated): 0%
remaining binding at 0.001 µM (protein kinases [4]; ABL1(H396P)-unphosphorylated): 27%
remaining binding at 0.01 µM (protein kinases [4]; ABL1(H396P)-unphosphorylated): 1.8%
remaining binding at 1 µM (protein kinases [4]; ABL1(H396P)-unphosphorylated): 0.05%
remaining binding at 0.001 µM (protein kinases [5]; 1 nM): 90%
remaining binding at 0.01 µM (protein kinases [5]; 10 nM): 27%
remaining binding at 1 µM (protein kinases [5]; 1000 nM): 0%
remaining binding at 0.001 µM (protein kinases [6]; 1 nM): 44%
remaining binding at 0.01 µM (protein kinases [6]; 10 nM): 6.4%
remaining binding at 1 µM (protein kinases [6]; 1000 nM): 7%
remaining binding at 0.001 µM (protein kinases [7]; 1 nM): 65%
remaining binding at 0.01 µM (protein kinases [7]; 10 nM): 12%
remaining binding at 1 µM (protein kinases [7]; 1000 nM): 0.35%
remaining binding at 0.001 µM (protein kinases [8]; 1 nM): 94%
remaining binding at 0.01 µM (protein kinases [8]; 10 nM): 41%
remaining binding at 1 µM (protein kinases [8]; 1000 nM): 0%
remaining binding at 0.001 µM (protein kinases [9]; 1 nM): 93%
remaining binding at 0.01 µM (protein kinases [9]; 10 nM): 74%
remaining binding at 1 µM (protein kinases [9]; 1000 nM): 0%
remaining binding at 0.001 µM (protein kinases [10]; 1 nM): 100%
remaining binding at 0.01 µM (protein kinases [10]; 10 nM): 82%
remaining binding at 1 µM (protein kinases [10]; 1000 nM): 0.2%
remaining binding at 0.001 µM (protein kinases [11]; ABL1-phosphorylated): 49%
remaining binding at 0.01 µM (protein kinases [11]; ABL1-phosphorylated): 9.9%
remaining binding at 1 µM (protein kinases [11]; ABL1-phosphorylated): 0.1%
remaining binding at 0.001 µM (protein kinases [11]; ABL1-unphosphorylated): 41%
remaining binding at 0.01 µM (protein kinases [11]; ABL1-unphosphorylated): 8.3%
remaining binding at 1 µM (protein kinases [11]; ABL1-unphosphorylated): 0%
remaining binding at 0.001 µM (protein kinases [12]; 1 nM): 81%
remaining binding at 0.01 µM (protein kinases [12]; 10 nM): 54%
remaining binding at 1 µM (protein kinases [12]; 1000 nM): 0.05%
remaining binding at 0.001 µM (protein kinases [13]; 1 nM): 36%
remaining binding at 0.01 µM (protein kinases [13]; 10 nM): 1.4%
remaining binding at 1 µM (protein kinases [13]; 1000 nM): 0.1%
Test compound/solvent control (%) (protein kinases [14]; 1 nM): 90%
Test compound/solvent control (%) (protein kinases [14]; 10 nM): 29%
Test compound/solvent control (%) (protein kinases [14]; 1000 nM): 0%
